Experimental data from patent US8092790B2, “Methods of making formulations to affect insect behavior and/or bird behavior” (Bug Buster, Ltd., priority 2003, dated 2012).
“And” between values parts separate entries of the source, which are not always exact repeats. Equal entries are not always repeated.

How the values were obtained:
[1] = system: fruit flies (Drosophila spp.); experiment: Attraction of fruit flies, sticky trap with treated surface; type: in vivo
Text: An exemplary compound, methyl anthranilate, was combined with fatty acid and used to attract insects, in particular, fruit flies (Drosophila spp.). This exemplary compound will also repel at least some birds. […] An exemplary compound, methyl anthranilate, was combined with fatty acid and applied to a surface (e.g., a treated surface) of a sticky trap and used to attract and to trap insects, in particular, fruit flies (Drosophilia spp.). This exemplary compound will also repel at least some birds.
A trial compared insect attraction for an untreated surface of a sticky trap and with a treated surface of a sticky trap.
For example, grape crushing and/or fermenting may release competitive agents.

[2] = system: corn ear worm (Heliothus zea); experiment: Crop field trials with lambda cyalothrin insecticide, corn ear worm larvae; type: in vivo
Text: An exemplary compound, methyl anthranilate, was combined with fatty acid and applied to crop fields (again, this formulation will also repel at least some birds), contemporaneously, an insecticide having a pyrethrin, lambda cyalothrin, as an active ingredient was applied to crop fields (e.g., WARRIOR™).
In another trial, an insecticide that included a pyrethrin, lambda cyalothrin, was applied to crop fields (e.g., WARRIOR™). […] Later, an exemplary compound, methyl anthranilate, combined with a fatty acid, was applied to the same crop field. […] An exemplary composition included an exemplary compound, methyl anthranilate, fatty acid and an insecticide that included a pyrethrin, lambda cyalothrin, as an active ingredient (e.g., WARRIOR™). The exemplary composition was applied to crop fields.

[3] = system: larvae in a laboratory growing medium; experiment: Application to larvae in laboratory growing medium; type: in vivo; conditions: control group remained in growing medium
Text: Trials involved applying an exemplary compound to larvae in a laboratory growing medium.
An exemplary compound, methyl anthranilate (e.g., BIRDSHIELD™) was applied to insects that were first allowed to adapt to a laboratory environment. A control group of insects were not exposed to the exemplary compound.

[4] = system: house flies (D. melanogater); experiment: Treated aluminum siding section on building; type: in vivo; conditions: 0.025%
Text: (§1) An exemplary compound, methyl anthranilate (e.g. Bird Shield™) was applied at 0.025% concentration to a three foot by one foot (three square feet) section of aluminum siding (treated section) and compared with a equal sized section of aluminum siding (untreated section) on the side of a building. Approximately 23 to 25 house flies (D. melanogater) had landed and were resting on each section. […] All of the flies on the untreated section remained. […] Twenty-three flies remained on the adjacent untreated section.

house flies = experiment: Treated aluminum siding section on building; type: in vivo, D. melanogater; conditions: 0.025%, thirty minutes after application
Text: as §1

[5] = system: sunflower seed weevils (Smicronyx spp.); experiment: Comparison to DEET product, drawing weevils out of sunflower heads; type: in vivo
Text: DEET is often used by entomologists in standard procedures to draw sunflower seed weevils (Smicronyx spp.) out of the heads of sunflowers. In this trial, DEET was provided in the commercially available product DEEP WOODS OFF™ repellent (S.C. Johnson and Son's, Racine, Wis.), which has approximately 28.5% active ingredient; 1.5% other isomers and 70% inert ingredients. Forty-two flowers were randomly selected from interiors of three fields. One-half of the flowers were sprayed with the DEET containing repellent while the remaining flowers were sprayed with the exemplary compound at a concentration of approximately 0.00312% methyl anthranilate, which was combined with long chained fatty acids. The number of sunflower weevils was recorded.

[6] = system: mosquito (Aedes aegyptis); experiment: Mosquito repellency on human subject; type: in vivo
Text: In these trials, DEET was provided in the commercially available product DEEP WOODS OFF™ repellent (S.C. Johnson & Son, Inc., Racine, Wis.), which has approximately 28.5% active ingredient; 1.5% other isomers and 70% inert ingredients.
In a first trial, a human subject was exposed to a mosquito (Aedes aegyptis) rich environment without application of the exemplary compound or DEET. Within less than one minute the subject was covered with the insects. In a second trial, the subject sprayed one unclothed arm with the exemplary compound at a rate of 0.00312% and the other unclothed arm with DEET at a concentration of 0.24%. The subject's head remained untreated. Upon returning to the test area, the subject's head was covered with the insects within one minute. […] In a third trial the subject, after removing the DEET from his/her body, reapplied the exemplary compound to unclothed arms, head and neck before returning to the test area. The subject returned to and remained in the test area for more than one hour without any of the insects landing on his/her arms, hands and head while numerous insects were observed on the clothed portions of his/her anatomy.

ant nest = experiment: Treatment of ant nest; type: in vivo; conditions: diluted form; about 24 hours post-application
Text: An exemplary method includes applying an exemplary compound or an exemplary composition to an insect nest.

birds = conditions: in vivo; cited from earlier work
Camponotus spp. = conditions: in vivo; cited from earlier work
T. tabaci = conditions: in vivo; cited from earlier work

Question: Which “attraction of fruit flies” value ([1]; combined with fatty acid) does the source give for `COC(=O)c1ccccc1N` [methyl anthranilate] here?
Answer: The value was “attracted fruit flies”.

Question: And the “effectiveness in a competitive environment” value ([1]; grape crushing and/or fermenting may release competitive agents)?
Answer: The value was “may be diminished in a competitive environment”.

Question: And the “insects on treated surface of sticky trap” value ([1]; in less than one minute, only a few insects on untreated surface)?
Answer: The value was “covered with insects”.

Question: And the “corn ear worm larvae on the ground” value ([2]; combined with a fatty acid, applied later to field already treated with lambda cyalothrin, within a day)?
Answer: The value was “littered the ground”.

Question: And the “corn ear worm larvae on the ground” value ([2]; combined with fatty acid, applied contemporaneously with lambda cyalothrin insecticide (WARRIOR), within a day of treatment)?
Answer: Its value is “littered the ground”.

Question: And the “behavior of exposed insects” value [3]?
Answer: Its value is “emerged quickly from the laboratory growing medium”.

Question: What about the “flies resting on treated section” value ([4]; immediately after application) of the same compound?
Answer: The value was “all of the flies departed”.

Question: And the “flies on treated section” value ([4]; one hour after application)?
Answer: Its value is “no flies were observed trying to land on the treated section”.

Question: What about the “time flies remained on treated section” value ([4]; thirty minutes after application) of the same compound?
Answer: Its value is 6 to 8 s.

Question: What about the “flies on treated section” value ([4]; twenty-four hours after application) of the same compound?
Answer: The value was “no flies were observed on the treated section”.

Question: And the “flies attempting to land on treated section within a five minute period” value (house flies)?
Answer: The value was “approximately 30 flies”.

Question: And the “Number of insects, Mean” value ([5]; Field No. 1)?
Answer: The value was 6.8.

Question: And the “Number of insects, Total” value ([5]; Field No. 1)?
Answer: The value was 68.

Question: What about the “Number of insects, Mean” value ([5]; Field No. 2) of the same compound?
Answer: Its value is 24.

Question: And the “Number of insects, Total” value ([5]; Field No. 2)?
Answer: Its value is 72.

Question: And the Number of insects ([5]; Field No. 2, per flower, DEET as DEEP WOODS OFF, methyl anthranilate approx. 0.00312% with long chained fatty acids)?
Answer: The Number of insects was 23 and 24 and 26.

Question: What about the “Number of insects, Mean” value ([5]; Field No. 3) of the same compound?
Answer: Its value is 8.4.

Question: And the “Number of insects, Total” value ([5]; Field No. 3)?
Answer: The value was 67.

Question: What about the “effectiveness compared with DEET” value ([5]; approx. 0.00312% methyl anthranilate with long chained fatty acids vs DEET repellent product) of the same compound?
Answer: The value was “generally more effective than DEET”.

Question: And the “effectiveness as mosquito repellent compared with DEET” value ([6]; at lower concentrations)?
Answer: Its value is “as effective as DEET”.

Question: What about the “mosquitoes on treated unclothed arm” value ([6]; second trial, methyl anthranilate 0.00312%, DEET 0.24%, untreated head covered within one minute) of the same compound?
Answer: The value was “No mosquitoes were found”.

Question: And the “time in test area without insects landing on treated arms, hands and head” value ([6]; third trial)?
Answer: The value was “more than one”.

Question: What about the “ant activity at the site of the nest” value (ant nest) of the same compound?
Answer: The value was “no ant activity was observed”.

Question: What about the repellency to birds (birds) of the same compound?
Answer: The repellency to birds was “exhibit repellency to birds”.

Question: What about the “effect on Camponotus spp.” value (Camponotus spp.) of the same compound?
Answer: The value was “trigger flight of sexuals from nest”.

Question: What about the “attraction of T. tabaci” value (T. tabaci) of the same compound?
Answer: Its value is “did not attract”.
